From ChEMBL document CHEMBL3751682, “Synthesis, anti-inflammatory, ulcerogenic and cyclooxygenase activities of indenopyrimidine derivatives” (Bioorg Med Chem Lett, 2016)

How the values were obtained:
Rattus norvegicus [1] = test: Anti-inflammatory activity in albino Wistar rat assessed as inhibition of carrageenan-induced paw edema at 25 mg/kg, po measured every one hour for 5 hrs; format: functional
[2] = Ratio of IC50 for human COX2 to IC50 for ovine COX1 by prostaglandin biosynthesis assay
Rattus norvegicus [3] = test: Anti-inflammatory activity in albino Wistar rat assessed as inhibition of carrageenan-induced paw edema at 50 mg/kg, po measured every one hour for 5 hrs; format: functional
Rattus norvegicus [4] = test: Ulcerogenicity in albino Wistar rat assessed as ulcer index at 50 mg/kg, po after 20 hrs; format: toxicity, organism-based; conditions: in vivo
Rattus norvegicus [5] = test: Anti-inflammatory activity in albino Wistar rat assessed as inhibition of carrageenan-induced paw edema at 30 mg/kg, po measured every one hour for 5 hrs; format: functional
Rattus norvegicus [6] = test: Ulcerogenicity in albino Wistar rat assessed as ulcer index at 100 mg/kg, po after 20 hrs; format: toxicity, organism-based; conditions: in vivo

| Ratio IC50 [2] | Structure (SMILES) | inhibition in vivo at 25 mg/kg (Rattus norvegicus [1]) [%] | inhibition in vivo at 50 mg/kg (Rattus norvegicus [3]) [%] | UI (Rattus norvegicus [4]) | inhibition in vivo at 30 mg/kg (Rattus norvegicus [5]) [%] | UI (Rattus norvegicus [6]) |
| --- | --- | --- | --- | --- | --- | --- |
| 0.69 | Nc1nc(-c2ccc(Br)cc2)c2c(n1)-c1ccccc1C2=O | 76.7 | 80 | 2.9 | – | – |
| 0.69 | COc1cc(-c2nc(N)nc3c2C(=O)c2ccccc2-3)cc(OC)c1OC | 75.3 | 78.7 | 2.8 | – | – |
| 0.7 | Nc1nc(-c2cccc([N+](=O)[O-])c2)c2c(n1)-c1ccccc1C2=O | 76 | 79.3 | 2.9 | – | – |
| – | Nc1nc(-c2ccc([N+](=O)[O-])cc2)c2c(n1)-c1ccccc1C2=O | 77.3 | 81.3 | 2.9 | – | – |
| – | O=C(O)Cc1ccccc1Nc1c(Cl)cccc1Cl [DICLOFENAC] | – | – | – | 85.3 | 5.7 |
| – | Nc1nc(-c2ccccc2)c2c(n1)-c1ccccc1C2=O | 76.7 | 80.7 | 3 | – | – |
| 0.04 | Cc1ccc(-c2cc(C(F)(F)F)nn2-c2ccc(S(N)(=O)=O)cc2)cc1 | – | – | – | – | – |
| 0.68 | COc1cccc(-c2nc(N)nc3c2C(=O)c2ccccc2-3)c1 | 75.3 | 78 | 2.9 | – | – |
| 0.7 | Nc1nc(-c2ccc(Cl)cc2)c2c(n1)-c1ccccc1C2=O | 76 | 78 | 3 | – | – |
